# Tested on: BT-474 cancer cells
# Experiment: Inhibition of BT-474 cell proliferation (CellTiter-Glo)
# Type: cell-based
# Conditions: Homo sapiens, BT-474 cells, 120 hours
# Protocol: BT-474 cancer cells were cultured by using RPMI-1640 medium containing 20% FBS. The BT-474 cancer cells were seeded to a white clear bottom 96 well plate (Corning) at 5,000 cells per well 48 hours before the BT-474 cancer cells were treated with Example Compounds. Example Compounds were diluted in dimethylsulfoxide (3-fold diluted, total 11 concentrations) and 1 μL each was injected so that the final concentration was 0.2 nM to 10 μM. For the measurement of living cells, the cells were stored at room temperature for 10 minutes using the CellTiter-Glo cell viability reagent (Promega) after a predetermined time (120 hours) after the treatment of Example Compounds, and then the luminescence intensity was measured using a reader (SynergyNeo, Biotek). Each test was repeated three times.
# The result value was calculated as a cell growth rate (%) compared to a control group. Graphs were plotted and GI50 values were calculated using the GraphPad Prism version 8.0 program, and the results are shown in Table 18 below.
row,SMILES,GI50
1,"COc1cc2ncnc(Nc3cc(C)c(Oc4ccc5nccnc5c4)cc3OC)c2cc1NC(=O)/C(F)=C/[C@H]1CCCN1C [Example 63, (R,Z)-2-fluoro-N-(7-methoxy-4-((2-methoxy-5-methyl-4-(quinoxalin-6-yloxy)phenyl)amino)quinazolin-6-yl)-3-(1-methylpyrrolidin-2-yl)acrylamide]",≤ 50 nM
2,"COc1cc2ncnc(Nc3cc(C)c(Oc4ccc5ccccc5c4)cc3OC)c2cc1NC(=O)/C(F)=C/[C@H]1CCCN1C [Example 64, (R,Z)-2-fluoro-N-(7-methoxy-4-((2-methoxy-5-methyl-4-(naphthalen-2-yloxy)phenyl)amino)quinazolin-6-yl)-3-(1-methylpyrrolidin-2-yl)acrylamide]",≤ 50 nM
3,"COc1cc2ncnc(Nc3cc(C)c(Oc4ccc5ccccc5c4)cc3OC)c2cc1NC(=O)/C(F)=C\[C@H]1CCCN1C [Example 65, (R,E)-2-fluoro-N-(7-methoxy-4-((2-methoxy-5-methyl-4-(naphthalen-2-yloxy)phenyl)amino)quinazolin-6-yl)-3-(1-methylpyrrolidin-2-yl)acrylamide]",≤ 50 nM
4,"COc1cc2ncnc(Nc3cc(C)c(Oc4ccc5oc(C)nc5c4)cc3OC)c2cc1NC(=O)/C(F)=C/[C@H]1CCCN1C [Example 68, (R,Z)-2-fluoro-N-(7-methoxy-4-((2-methoxy-5-methyl-4-((2-methylbenzo[d]oxazol-5-yl)oxy)phenyl)amino)quinazolin-6-yl)-3-(1-methylpyrrolidin-2-yl)acrylamide]",≤ 50 nM
5,"COc1cc2ncnc(Nc3cc(C)c(Oc4ccc5c(c4)NC(O)O5)cc3OC)c2cc1NC(=O)/C(F)=C/[C@H]1CCCN1C (stereo partly drawn) [Example 70, (Z)-2-fluoro-N-(4-((4-((2-hydroxy-2,3-dihydrobenzo[d]oxazol-5-yl)oxy)-2-methoxy-5-methylphenyl)amino)-7-methoxyquinazolin-6-yl)-3-((R)-1-methylpyrrolidin-2-yl)acrylamide]",≤ 50 nM
6,"COc1cc2ncnc(Nc3cc(C)c(Oc4ccn(C)c(=O)c4)cc3OC)c2cc1NC(=O)/C(F)=C\[C@H]1CCCN1C [Example 71, (R,E)-2-fluoro-N-(7-methoxy-4-((2-methoxy-5-methyl-4-((1-methyl-2-oxo-1,2-dihydropyridin-4-yl)oxy)phenyl)amino)quinazolin-6-yl)-3-(1-methylpyrrolidin-2-yl)acrylamide]",≤ 50 nM
7,"COc1cc2ncnc(Nc3cc(C)c(Oc4ccc5ncnn5c4)cc3OC)c2cc1NC(=O)/C(F)=C\[C@H]1CCCN1C [Example 72, (R,E)-N-(4-((4-([1,2,4]triazolo[1,5-a]pyridin-6-yloxy)-2-methoxy-5-methylphenyl)amino)-7-methoxyquinazolin-6-yl)-2-fluoro-3-(1-methylpyrrolidin-2-yl)acrylamide]",≤ 50 nM
8,"COc1cc2ncnc(Nc3cc(C)c(Oc4ccc5ncnn5c4)cc3OC)c2cc1NC(=O)/C(F)=C/[C@H]1CCCN1C [Example 73, (R,Z)—N-(4-((4-([1,2,4]triazolo[1,5-a]pyridin-6-yloxy)-2-methoxy-5-methylphenyl)amino)-7-methoxyquinazolin-6-yl)-2-fluoro-3-(1-methylpyrrolidin-2-yl)acrylamide]",≤ 50 nM
9,"COc1cc2ncnc(Nc3cc(C)c(Oc4cnc5ccnn5c4)cc3OC)c2cc1NC(=O)/C(F)=C\[C@H]1CCCN1C [Example 79, (R,E)-2-fluoro-N-(7-methoxy-4-((2-methoxy-5-methyl-4-(pyrazolo[1,5-a]pyrimidin-6-yloxy)phenyl)amino)quinazolin-6-yl)-3-(1-methylpyrrolidin-2-yl)acrylamide]",≤ 50 nM
10,"COc1cc2ncnc(Nc3cc(C)c(Oc4cnc5ccnn5c4)cc3OC)c2cc1NC(=O)/C(F)=C/[C@H]1CCCN1C [Example 80, (R,Z)-2-fluoro-N-(7-methoxy-4-((2-methoxy-5-methyl-4-(pyrazolo[1,5-a]pyrimidin-6-yloxy)phenyl)amino)quinazolin-6-yl)-3-(1-methylpyrrolidin-2-yl)acrylamide]",≤ 50 nM
11,"COc1cc2ncnc(Nc3cc(C)c(Oc4ccc5ncsc5c4)cc3OC)c2cc1NC(=O)/C(F)=C\[C@H]1CCCN1C [Example 81, (R,E)-N-(4-((4-(benzo[d]thiazol-6-yloxy)-2-methoxy-5-methylphenyl)amino)-7-methoxyquinazolin-6-yl)-2-fluoro-3-(1-methylpyrrolidin-2-yl)acrylamide]",≤ 50 nM
12,"COc1cc2ncnc(Nc3cc(C)c(Oc4ccc5ncsc5c4)cc3OC)c2cc1NC(=O)/C(F)=C/[C@H]1CCCN1C [Example 82, (R,Z)—N-(4-((4-(benzo[d]thiazol-6-yloxy)-2-methoxy-5-methylphenyl)amino)-7-methoxyquinazolin-6-yl)-2-fluoro-3-(1-methylpyrrolidin-2-yl)acrylamide]",≤ 50 nM
13,"COc1cc2ncnc(Nc3cc(C)c(Oc4ccc5scnc5c4)cc3OC)c2cc1NC(=O)/C(F)=C\[C@H]1CCCN1C [Example 84, (R,E)-N-(4-((4-(benzo[d]thiazol-5-yloxy)-2-methoxy-5-methylphenyl)amino)-7-methoxyquinazolin-6-yl)-2-fluoro-3-(1-methylpyrrolidin-2-yl)acrylamide]",≤ 50 nM
14,"COc1cc2ncnc(Nc3cc(C)c(Oc4ccc5c(c4)OCO5)cc3OC)c2cc1NC(=O)/C(F)=C\[C@H]1CCCN1C [Example 85, (R,E)-N-(4-((4-(benzo[d][1,3]dioxol-5-yloxy)-2-methoxy-5-methylphenyl)amino)-7-methoxyquinazolin-6-yl)-2-fluoro-3-(1-methylpyrrolidin-2-yl)acrylamide]",≤ 50 nM
15,"COc1cc2ncnc(Nc3cc(C)c(Oc4ccc5c(c4)OCO5)cc3OC)c2cc1NC(=O)/C(F)=C/[C@H]1CCCN1C [Example 86, (R,Z)—N-(4-((4-(benzo[d][1,3]dioxol-5-yloxy)-2-methoxy-5-methylphenyl)amino)-7-methoxyquinazolin-6-yl)-2-fluoro-3-(1-methylpyrrolidin-2-yl)acrylamide]",≤ 50 nM
16,"COc1cc2ncnc(Nc3cc(C)c(Oc4ccc5cccnc5c4)cc3OC)c2cc1NC(=O)/C(F)=C/[C@H]1CCCN1C [Example 87, (R,Z)-2-fluoro-N-(7-methoxy-4-((2-methoxy-5-methyl-4-(quinolin-7-yloxy)phenyl)amino)quinazolin-6-yl)-3-(1-methylpyrrolidin-2-yl)acrylamide]",≤ 50 nM
17,"COc1cc2ncnc(Nc3cc(C)c(Oc4ccc5cccnc5c4)cc3OC)c2cc1NC(=O)/C(F)=C\[C@H]1CCCN1C [Example 88, (R,E)-2-fluoro-N-(7-methoxy-4-((2-methoxy-5-methyl-4-(quinolin-7-yloxy)phenyl)amino)quinazolin-6-yl)-3-(1-methylpyrrolidin-2-yl)acrylamide]",≤ 50 nM
18,"COc1cc2ncnc(Nc3cc(C)c(Oc4ccc5cnn(C)c5c4)cc3OC)c2cc1NC(=O)/C(F)=C\[C@H]1CCCN1C [Example 89, (R,E)-2-fluoro-N-(7-methoxy-4-((2-methoxy-5-methyl-4-((1-methyl-1H-indazol-6-yl)oxy)phenyl)amino)quinazolin-6-yl)-3-(1-methylpyrrolidin-2-yl)acrylamide]",≤ 50 nM
19,"COc1cc2ncnc(Nc3cc(C)c(Oc4ccc5cnn(C)c5c4)cc3OC)c2cc1NC(=O)/C(F)=C/[C@H]1CCCN1C [Example 90, (R,Z)-2-fluoro-N-(7-methoxy-4-((2-methoxy-5-methyl-4-((1-methyl-1H-indazol-6-yl)oxy)phenyl)amino)quinazolin-6-yl)-3-(1-methylpyrrolidin-2-yl)acrylamide]",≤ 50 nM
20,"COCCOc1cc2ncnc(Nc3cc(C)c(Oc4ccn5ncnc5c4)cc3OC)c2cc1NC(=O)/C(F)=C\[C@H]1CCCN1C [Example 94, (R,E)-N-(4-((4-([1,2,4]triazolo[1,5-a]pyridin-7-yloxy)-2-methoxy-5-methylphenyl)amino)-7-(2-methoxyethoxy)quinazolin-6-yl)-2-fluoro-3-(1-methylpyrrolidin-2-yl)acrylamide]",≤ 50 nM
21,"COc1cc(Oc2ccn3ncnc3c2)c(C)cc1Nc1ncnc2cc(OC3CCOC3)c(NC(=O)/C(F)=C/[C@H]3CCCN3C)cc12 (stereo partly drawn) [Example 97, (Z)—N-(4-((4-([1,2,4]triazolo[1,5-a]pyridin-7-yloxy)-2-methoxy-5-methylphenyl)amino)-7-((tetrahydrofuran-3-yl)oxy)quinazolin-6-yl)-2-fluoro-3-((R)-1-methylpyrrolidin-2-yl)acrylamide]",≤ 50 nM
22,"COc1cc(Oc2ccn3ncnc3c2)c(C)cc1Nc1ncnc2cc(OC(F)F)c(NC(=O)/C(F)=C/[C@H]3CCCN3C)cc12 [Example 98, (R,Z)—N-(4-((4-([1,2,4]triazolo[1,5-a]pyridin-7-yloxy)-2-methoxy-5-methylphenyl)amino)-7-(difluoromethoxy)quinazolin-6-yl)-2-fluoro-3-(1-methylpyrrolidin-2-yl)acrylamide]",≤ 50 nM
23,"COc1cc(Oc2ccn3ncnc3c2)c(C)cc1Nc1ncnc2cc(OC(F)F)c(NC(=O)/C(F)=C\[C@H]3CCCN3C)cc12 [Example 99, (R,E)-N-(4-((4-([1,2,4]triazolo[1,5-a]pyridin-7-yloxy)-2-methoxy-5-methylphenyl)amino)-7-(difluoromethoxy)quinazolin-6-yl)-2-fluoro-3-(1-methylpyrrolidin-2-yl)acrylamide]",≤ 50 nM
24,"COc1cc(Oc2ccn3ncnc3c2)c(C)cc1Nc1ncnc2cc(OCCN3CCOCC3)c(NC(=O)/C(F)=C/[C@H]3CCCN3C)cc12 [Example 101, (R,Z)—N-(4-((4-([1,2,4]triazolo[1,5-a]pyridin-7-yloxy)-2-methoxy-5-methylphenyl)amino)-7-(2-morpholinoethoxy)quinazolin-6-yl)-2-fluoro-3-(1-methylpyrrolidin-2-yl)acrylamide]",≤ 50 nM

# Source: patent US20240383923A1, “HETEROARYL DERIVATIVE AND USE THEREOF” (VORONOI INC., priority 2022, published 2024)
